A word on the pIC50: it is the IC50 on a negative log10 scale, so that one unit is a factor of ten.

pIC50: −log10 of the molar value. Where only a bound is given, the exact number is not on record here.

The assay concerns the target human c-MER catalytic domain (Homo sapiens (Human), UniProt Q12866). As to the kind of experiment: LanthaScreen TR-FRET kinase assay, c-MER. The settings on record: read-out: Mer TK inhibition (IC50); Biochemical IC50, TR-FRET, 10 uM ATP. On the technique in general: Time-resolved FRET reads energy transfer from a long-lived donor to a nearby acceptor.

Chain of human c-MER catalytic domain (Q12866 587-858): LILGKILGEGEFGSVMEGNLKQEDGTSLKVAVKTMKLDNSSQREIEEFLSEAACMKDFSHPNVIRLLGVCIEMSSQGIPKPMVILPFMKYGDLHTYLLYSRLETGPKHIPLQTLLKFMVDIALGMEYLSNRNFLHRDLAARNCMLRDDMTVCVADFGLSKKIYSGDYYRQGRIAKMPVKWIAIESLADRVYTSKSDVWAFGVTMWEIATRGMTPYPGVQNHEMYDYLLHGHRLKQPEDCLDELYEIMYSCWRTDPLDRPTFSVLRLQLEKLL

As for `CN1CCN(Cc2ccc(-c3ccc(CO[C@H]4COCC4NC(=O)c4cc(-c5cnn(C)c5)cnc4N)cc3)cc2)CC1` (stereo partly shown) [Example 454], the pIC50 is more than 8.00.
The same measure for `CC(C)C[C@@H](COCc1ccccc1)NC(=O)c1cc(-c2cnn(C)c2)cnc1N` [Example 111, (S)-2-amino-N-(1-(benzyloxy)-4-methylpentan-2-yl)-5-(1-methyl-1H-pyrazol-4-yl)nicotinamide]: less than 6.00.
Next, `CCCNC(=O)[C@@H](NC(=O)c1cc(-c2cnn(C)c2)cnc1N)[C@@H](C)OCc1ccccc1` [Example 123, 2-amino-N-((2S,3R)-3-(benzyloxy)-1-oxo-1-(propylamino)butan-2-yl)-5-(1-methyl-1H-pyrazol-4-yl)nicotinamide]: less than 6.00.
Next, `C[C@H](COCc1ccc(Cl)cc1)NC(=O)c1cc(-c2cnn(C)c2)cnc1N` [Example 102, (R)-2-amino-N-(1-((4-chlorobenzyl)oxy)propan-2-yl)-5-(1-methyl-1H-pyrazol-4-yl)nicotinamide]: less than 6.00; `Cn1cc(-c2cnc(N)c(C(=O)N[C@H]3COC[C@@H]3N3CCCC3)c2)cn1` (relative stereo) [Example 91, 2-amino-5-(1-methyl-1H-pyrazol-4-yl)-N-(trans-4-(pyrrolidin-1-yl)tetrahydrofuran-3-yl)nicotinamide]: less than 6.00.
For the compound `N#Cc1ccc(-c2cnc(N)c(C(=O)N[C@H]3CCC[C@@H]3OCc3ccccc3)c2)cc1` [Example 264, 2-amino-N-((1S,2S)-2-(benzyloxy)cyclopentyl)-5-(4-cyanophenyl)-nicotinamide], the pIC50 was less than 6.00.
Next, `Cn1cc(-c2cnc(N)c(C(=O)N[C@H]3CCC[C@@H]3OCc3ccccc3)n2)cn1` [Example 129, 3-amino-N-((1S,2S)-2-(benzyloxy)cyclopentyl)-6-(1-methyl-1H-pyrazol-4-yl)pyrazine-2-carboxamide]: less than 6.00; `Cn1cc(-c2cnc(N)c(C(=O)N[C@H]3CCC4(OCCO4)[C@@H]3OCc3ccccc3)c2)cn1` [Example 73, 2-amino-N-((6R,7S)-6-(benzyloxy)-1,4-dioxaspiro[4.4]nonan-7-yl)-5-(1-methyl-1H-pyrazol-4-yl)nicotinamide]: less than 6.00; `Nc1ncc(-c2cnn(C3CCNCC3)c2)nc1C(=O)N[C@H]1CCCc2ccccc21` [Example 362, (S)-3-amino-6-(1-(piperidin-4-yl)-1H-pyrazol-4-yl)-N-(1,2,3,4-tetrahydronaphthalen-1-yl)pyrazine-2-carboxamide]: less than 6.00.
In the case of `COC(=O)[C@H](COCc1ccccc1)NC(=O)c1cc(-c2cnn(C)c2)cnc1N` [Example 120, methyl N-(2-amino-5-(1-methyl-1H-pyrazol-4-yl)nicotinoyl)-O-benzyl-L-serinate], the pIC50 is less than 6.00.
Next, `Cn1cc(-c2cnc(N)c(C(=O)N[C@H]3CCC[C@@H]3OCc3ccccc3-c3ccccc3)c2)cn1` (relative stereo) [Example 66, N-(trans-2-([1,1′-biphenyl]-2-ylmethoxy)cyclopentyl)-2-amino-5-(1-methyl-1H-pyrazol-4-yl)nicotinamide]: less than 6.00; `Cn1cc(-c2cnc(N)c(C(=O)N[C@H](COCc3ccccc3)c3ccccc3)c2)cn1` [Example 115, (S)-2-amino-N-(2-(benzyloxy)-1-phenylethyl)-5-(1-methyl-1H-pyrazol-4-yl)nicotinamide]: less than 6.00; `Cn1cc(-c2cnc(N)c(C(=O)N[C@H]3COC[C@@H]3N3CCOCC3)c2)cn1` (relative stereo) [Example 90, 2-amino-5-(1-methyl-1H-pyrazol-4-yl)-N-(trans-4-morpholinotetrahydrofuran-3-yl)nicotinamide]: less than 6.00.
Next, `C[C@H](CNC(=O)c1cc(-c2cnn(C)c2)cnc1N)OCc1ccccc1` [Example 95, (R)-2-amino-N-(2-(benzyloxy)propyl)-5-(1-methyl-1H-pyrazol-4-yl)nicotinamide]: less than 6.00; `C[C@H](COCC1CCC1)NC(=O)c1cc(-c2cnn(C)c2)cnc1N` [Example 119, (R)-2-amino-N-(1-(cyclobutylmethoxy)propan-2-yl)-5-(1-methyl-1H-pyrazol-4-yl)nicotinamide]: less than 6.00; `Cn1cc(-c2cnc(N)c(C(=O)N[C@H]3CCC[C@@H]3OCc3cccc(O)c3)c2)cn1` [Example 32, 2-amino-N-((1S,2S)-2-((3-hydroxybenzyl)oxy)cyclopentyl)-5-(1-methyl-1H-pyrazol-4-yl)nicotinamide]: less than 6.00.
Next, `Cc1ccc(CO[C@H]2CCC[C@@H]2NC(=O)c2cc(-c3ccc(CNCC4CCN(C)CC4)cc3)cnc2N)cc1C` [Example 329, 2-amino-N-((1S,2S)-2-((3,4-dimethylbenzyl)oxy)cyclopentyl)-5-(4-((((1-methylpiperidin-4-yl)methyl)amino)methyl)phenyl)nicotinamide]: more than 8.00; `CC(=O)N[C@@H](C)C(=O)Nc1cccc(CO[C@H]2CCC[C@@H]2NC(=O)c2cc(-c3cnn(C)c3)cnc2N)c1` [Example 59, N-((1S,2S)-2-((3-((S)-2-acetamidopropanamido)benzyl)oxy)-cyclopentyl)-2-amino-5-(1-methyl-1H-pyrazol-4-yl)nicotinamide]: less than 6.00.
For `COC(=O)[C@@H](NC(=O)c1cc(-c2cnn(C)c2)cnc1N)[C@@H](C)OCc1ccccc1` [Example 121, methyl N-(2-amino-5-(1-methyl-1H-pyrazol-4-yl)nicotinoyl)-O-benzyl-L-threoninate], the pIC50 was less than 6.00.
Next, `Cn1cc(-c2cnc(N)c(C(=O)N[C@H]3CCC[C@@H]3OCc3ccccc3)c2)c(CN2CCCC(O)C2)n1` (stereo partly drawn) [Example 263, 2-amino-N-((1S,2S)-2-(benzyloxy)cyclopentyl)-5-(3-((3-hydroxypiperidin-1-yl)methyl)-1-methyl-1H-pyrazol-4-yl)nicotinamide]: less than 6.00.
Regarding `COc1cccc(CO[C@@H](C)CNC(=O)c2cc(-c3cnn(C)c3)cnc2N)c1` [Example 107, (S)-2-amino-N-(2-((3-methoxybenzyl)oxy)propyl)-5-(1-methyl-1H-pyrazol-4-yl)nicotinamide], the pIC50 was less than 6.00.
Consider `CCNc1ncc(-c2cnn(C)c2)cc1C(=O)N[C@H]1CCC[C@@H]1OCc1ccccc1` [Example 71, N-((1S,2S)-2-(benzyloxy)cyclopentyl)-2-(ethylamino)-5-(1-methyl-1H-pyrazol-4-yl)nicotinamide], for which the negative logarithm of the IC50 (pIC50) was less than 6.00.
Next, `Cn1cc(-c2cnc(N)c(C(=O)N[C@H]3CCC[C@H]3O)c2)cn1` (relative stereo) [Example 70, 2-amino-N-(cis-2-hydroxycyclopentyl)-5-(1-methyl-1H-pyrazol-4-yl)nicotinamide]: less than 6.00; `Cn1cc(-c2cnc(N)c(C(=O)N[C@H]3CCCc4ccccc43)n2)cn1` [Example 131, (S)-3-amino-6-(1-methyl-1H-pyrazol-4-yl)-N-(1,2,3,4-tetrahydronaphthalen-1-yl)pyrazine-2-carboxamide]: less than 6.00; `Nc1nc(Nc2ccccc2)ccc1C(=O)N[C@H]1CCC[C@@H]1OCc1ccccc1` [Example 457, 2-amino-N-((1S,2S)-2-(benzyloxy)cyclopentyl)-6-(phenylamino)-nicotinamide]: less than 6.00.
The same measure for `CC[C@H](COCc1ccccc1)NC(=O)c1cc(-c2cnn(C)c2)cnc1N` [Example 108, (R)-2-amino-N-(1-(benzyloxy)butan-2-yl)-5-(1-methyl-1H-pyrazol-4-yl)nicotinamide]: less than 6.00; for `CN1CCN(Cc2ccc(Nc3ccc(C(=O)N[C@H]4CCC[C@@H]4OCc4ccccc4)c(N)n3)cc2)CC1` [Example 456, 2-amino-N-((1S,2S)-2-(benzyloxy)cyclopentyl)-6-((4-((4-methylpiperazin-1-yl)methyl)phenyl)amino)nicotinamide]: less than 6.00; for `Cc1c(N)cccc1-c1ccc(CO[C@H]2CCC[C@@H]2NC(=O)c2cc(-c3cnn(C)c3)cnc2N)cc1` [Example 139, 2-amino-N-((1S,2S)-2-((3′-amino-2′-methyl-[1,1′-biphenyl]-4-yl)methoxy)cyclopentyl)-5-(1-methyl-1H-pyrazol-4-yl)nicotinamide]: less than 6.00.
Regarding `CN(C)CCCc1ccc(CO[C@H]2CCC[C@@H]2NC(=O)c2cc(-c3cnn(C)c3)cnc2N)cc1` [Example 244, 2-amino-N-((1S,2S)-2-((4-(3-(dimethylamino)propyl)benzyl)oxy)-cyclopentyl)-5-(1-methyl-1H-pyrazol-4-yl)nicotinamide], the pIC50 was less than 6.00.
The same measure for `CC(C)N1C[C@H](NC(=O)c2cc(-c3cnn(C)c3)cnc2N)[C@@H](OCc2ccccc2)C1` (relative stereo) [Example 94, 2-amino-N-(trans-4-(benzyloxy)-1-isopropylpyrrolidin-3-yl)-5-(1-methyl-1H-pyrazol-4-yl)nicotinamide]: less than 6.00; for `CN1CCN(Cc2ccc(-c3ccc(CO[C@H]4CCCC[C@@H]4NC(=O)c4cc(-c5cnn(C)c5)cnc4N)cc3)cc2)CC1` [Example 166, 2-amino-5-(1-methyl-1H-pyrazol-4-yl)-N-((1S,2S)-2-((4′-((4-methylpiperazin-1-yl)methyl)-[1,1′-biphenyl]-4-yl)methoxy)cyclohexyl)nicotinamide]: less than 6.00.
The same measure for `Cn1cc(-c2cnc(N)c(C(=O)N[C@H]3CCC[C@@H]3OCc3cccc(C(=O)NCCO)c3)c2)cn1` [Example 56, 2-amino-N-((1S,2S)-2-((3-((2-hydroxyethyl)carbamoyl)benzyl)-oxy)cyclopentyl)-5-(1-methyl-1H-pyrazol-4-yl)nicotinamide]: less than 6.00.
Take `CNC(=O)[C@@H](NC(=O)c1cc(-c2cnn(C)c2)cnc1N)[C@@H](C)OCc1ccccc1` [Example 122, 2-amino-N-((2S,3R)-3-(benzyloxy)-1-(methylamino)-1-oxobutan-2-yl)-5-(1-methyl-1H-pyrazol-4-yl)nicotinamide]: the pIC50 is less than 6.00.
The same measure for `CC(C)[C@H](COCc1ccccc1)NC(=O)c1cc(-c2cnn(C)c2)cnc1N` [Example 110, (R)-2-amino-N-(1-(benzyloxy)-3-methylbutan-2-yl)-5-(1-methyl-1H-pyrazol-4-yl)nicotinamide]: less than 6.00.

These data come from patent publication US10125118B2, “Heteroaryl compounds and their use as therapeutic drugs” (Dong-A Socio Holdings Co., Ltd., priority 2015, dated 2018).
